Patent publication US20250221960A1, “COMPOSITIONS AND METHODS FOR THE TREATMENT OF DEPRESSION” (Janssen Pharmaceuticals, Inc., priority 2022, published 2025)

Key:
subjects with MDD [1] = experiment: ASEX sexual functioning, Example 1; type: in vivo, human
Source text: As used herein, the term “decrease in sexual functioning” refers to reducing or lessening of one or more components of the human sex drive, i.e., sexual functioning. In some embodiments, the sexual functioning comprises one or more of sexual drive, sexual arousal, vaginal lubrication, erection, orgasm achievement, or orgasm satisfaction. In other embodiments, the sexual functioning comprises sexual drive. In further embodiments, the sexual functioning comprises vaginal lubrication satisfaction. In further embodiments, the sexual functioning comprises orgasm achievement. In yet other embodiments, the sexual functioning comprises orgasm satisfaction. Desirably, the patient's sexual functioning is assessed at the time of initial administration of the aticaprant. Thus, the patient's sexual functioning while taking aticaprant can be compared to the patient's sexual functioning before administration of aticaprant. Sexual functioning may be assessed by using standard scales and techniques such as the Arizona Sexual Experience Scale (ASEX). The ASEX is used to investigate whether aticaprant has a further positive or negative effect on sexual function. The ASEX is 5 item rating scale administered to patients that quantifies sexual drive, sexual arousal, vaginal lubrication or penile erection, ability to reach orgasm and satisfaction. Scores range from 5 to 30, and two different versions of the scale are available (males and females).
Patients had their sexual functioning measured using a standard, well accepted rating scale: ASEX. See, Table 32.

subjects with MDD [2] = experiment: SATE score, Example 1; type: in vivo, human; conditions: Treatment Week 6, 10 mg
Source text: SATE is a one to three questionnaire administered when the subject is unable to complete other evaluations, i.e., away from the clinical setting such as at home. SATE is useful to evaluate improvement or deterioration of depressive symptoms of the subjects over a short period of time. […] See, Table C.
iv. To investigate the effect of aticaprant on symptoms of depression using the Clinical Global Impression-Severity (CGI-S), the patient reported Symptoms of Major Depressive Disorder Scale (SMDDS) and the self-assessment of treatment experience (SATE).
(§1) • (i) Depression: Montgomery-Åsberg Depression Rating Scale (MADRS), Clinical Global Impression-Severity (CGI-S), Symptoms of Major Depressive Disorder Scale (SMDDS), and Self-assessment of treatment experience (SATE) • (ii) Anhedonia: Snaith-Hamilton Pleasure Scale (SHAPS) • (iii) Anxiety: Structured Interview Guide for the Hamilton Anxiety scale (SIGH-A) and HAM-A6 • (iv) Effects on Cognition: The Cognitive and Physical Functioning Questionnaire (CPFQ) • (v) Safety assessments

[3] = Weight change by treatment group, Example 1; type: in vivo, human
Method: Treatment with aticaprant as described herein has several advantages over the treatments in the art. […] As used herein, the term “weight gain” refers to an increase in the weight of patient, relative to the weight of the patient before taking aticaprant or the weight of the patient that is assessed at the time of the initial administration of the aticaprant. In certain embodiments, the patient may actually see a decrease in overall weight, relative to the weight of the patient before taking aticaprant.
At the lead-in baseline timepoint, the mean weight for subjects in the placebo group was 76.17 kg compared to 78.66 in the aticaprant group. After 6 weeks in the double-blind treatment phase, the mean weight in the placebo group was 75.75 kg compared to 78.57 kg in the aticaprant group. […] This is unexpected because other adjunctive treatments for MDD result in a mean weight increase. See, Thase M, et al. J Clin Psych. 2015: 76 (9), 1224-1231; Thase, J Clin Psych. 2015, 76 (9): 1232-1240; El Khalili, Int J Neuropsychopharmacol. 2010, 13, 917-932; Marcus, J. Clin. Psychopharmacol. […] Nashville, Tenn, ACNP, 2008; Earley, American College of Neuropsychopharmacology, 2007, Annual Meeting Abstracts (Boca Raton, Fla, Dec. 9-13, 2007). Nashville, TN, ACNP, 2007). See, Table 29.

subjects with MDD [4] = experiment: SIGH-A score (anxiety), Example 1; type: in vivo, human; conditions: Treatment Week 6; 10 mg; 59 subjects analyzed
Source text: v. To investigate the effect of aticaprant on symptoms of anxiety using the HAM-A and on core symptoms of anxiety using the HAM-A6 subscale.
as §1

subjects with MDD [5] = experiment: Treatment-emergent adverse events, full safety analysis set, Example 1
[6] = Table 24, treatment period, Full Safety Analysis Set, 10 mg, N = 85
[7] = Table 25, treatment period, Full Safety Analysis Set, 10 mg, N = 85
[8] = Treatment period, Full Safety Analysis Set, 10 mg, N = 85

**Q.** What does the source list for `Cc1cc(C)cc(C2CCCN2Cc2ccc(Oc3ccc(C(N)=O)cc3F)cc2)c1` (stereo not drawn) [aticaprant, 3-fluoro-4-4-2-(3,5-dimethylphenyl) pyrrolidin-1-yl-methylphenoxybenzamide]?
**A.** ASEX score: Relative % Change (subjects with MDD [1]; Endpoint vs Baseline, n = 85): −6.91%; ASEX score: Absolute Change (subjects with MDD [1]; Endpoint vs Baseline, n = 85, lower score indicates improvement): −1.47; sexual functioning during treatment (subjects with MDD [1]; based on assessment at time of initial administration): does not experience a decrease in sexual functioning; mean change from treatment baseline (SD) in ASEX total score (subjects with MDD [1]; to week 6): -1.5 (4.02) points; Number of Subjects with SATE Score: Depression Worsened (Much worse) (subjects with MDD [2]; n = 0): 0 subjects; Number of Subjects with SATE Score: Depression Worsened (Slightly worse) (subjects with MDD [2]; n = 0): 0 subjects; Number of Subjects with SATE Score: Depression Worsened (Very much worse) (subjects with MDD [2]; n = 0): 0 subjects; Number of Subjects with SATE Score: Depression Much improved (subjects with MDD [2]; n = 21): 6 subjects; Number of Subjects with SATE Score: Depression Slightly improved (subjects with MDD [2]; n = 21): 15 subjects; Number of Subjects with SATE Score: Depression Very Much Improved (subjects with MDD [2]; n = 21): 0 subjects; Number of Subjects with SATE Score: Overall Depression (Got worse) (subjects with MDD [2]; n = 30): 0 subjects; Number of Subjects with SATE Score: Overall Depression (Improved) (subjects with MDD [2]; n = 30): 21 subjects; Number of Subjects with SATE Score: Overall Depression (Not changed) (subjects with MDD [2]; n = 30): 9 subjects; Mean weight: Relative % Change ([3]; Withdrawal vs Lead-in, n = 85): −0.11%; weight over the 6-week double blind treatment period ([3]; in vivo): remained relatively stable; Mean weight: Absolute Change (Withdrawal - Lead-in) ([3]; n = 85): -0.09 kg; Change from Treatment Baseline in Structured Interview Guide for the SIGH-A Score, Arithmetic Mean (SD) (subjects with MDD [4]): −5.85 ± 5.369 scores on a scale; TEAE in >=5% of subjects: Diarrhea (subjects with MDD [5]; [6]): 7 (8) n (%); TEAE in >=5% of subjects: Gastrointestinal Disorders (subjects with MDD [5]; [6]): 12 (14) n (%); TEAE in >=5% of subjects: Headache (subjects with MDD [5]; [6]): 10 (12) n (%); TEAE in >=5% of subjects: Infections And Infestations (subjects with MDD [5]; [6]): 13 (15) n (%); TEAE in >=5% of subjects: Nasopharyngitis (subjects with MDD [5]; [6]): 5 (6) n (%); TEAE in >=5% of subjects: Nervous System Disorders (subjects with MDD [5]; [6]): 13 (15) n (%); TEAE in >=5% of subjects: Pruritus (subjects with MDD [5]; [6]): 5 (6) n (%); TEAE in >=5% of subjects: Skin And Subcutaneous Tissue Disorders (subjects with MDD [5]; [6]): 6 (7) n (%); TEAE in >=5% of subjects: Total no. Subjects with Adverse Events (subjects with MDD [5]; [6]): 40 (47) n (%); TEAE of Special Interest: Abdominal Pain (subjects with MDD [5]; [7]): 1 (1.2) n (%); TEAE of Special Interest: Abdominal Pain Upper (subjects with MDD [5]; [7]): 0 n (%); TEAE of Special Interest: Diarrhea (subjects with MDD [5]; [7]): 7 (8.2) n (%); TEAE of Special Interest: Dyspepsia (subjects with MDD [5]; [7]): 1 (1.2) n (%); TEAE of Special Interest: Gastrointestinal Disorders (subjects with MDD [5]; [7]): 9 (10.6) n (%); TEAE of Special Interest: Pruritus (subjects with MDD [5]; [7]): 5 (5.9) n (%); TEAE of Special Interest: Skin And Subcutaneous Tissue Disorders (subjects with MDD [5]; [7]): 5 (5.9) n (%); TEAE of Special Interest: Total no. Subjects with Adverse Events of Special Interest (subjects with MDD [5]; [7]): 13 (15.3) n (%); Subjects with 1 or more TEAE (subjects with MDD [5]; [8]): 40 (47.1) n (%); Subjects with 1 or more serious TEAE (subjects with MDD [5]; [8]): 0 n (%); Subjects with TEAE leading to death (subjects with MDD [5]; [8]): 0 n (%); Subjects with TEAE leading to discontinuation of agent (subjects with MDD [5]; [8]): 1 (1.2) n (%); Total subjects affected by non-serious adverse events (subjects with MDD [5]; [8]): 23 (27.1%) n (%); Subjects with drug-related TEAE (subjects with MDD [5]; Treatment period, Full Safety Analysis Set, 10 mg, N = 85, relationships possible, probable, very likely): 20 (23.5) n (%); patients who experienced acute cholecystitis (subjects with MDD [5]; treatment period): 0 patients; TEAE of special interest pruritus, subjects (subjects with MDD [5]; treatment period, 5/85): 5.9%; TEAE diarrhea, subjects (subjects with MDD [5]; treatment period, 7/85): 8.2%; TEAE headache, subjects (subjects with MDD [5]; treatment period, 10/85): 11.8%; subjects who discontinued due to treatment-emergent adverse events (subjects with MDD [5]; treatment period, due to diarrhea, nausea, vomiting and headache): 1 subject
